Results from US9765039B2, “Biaryl derivatives as bromodomain inhibitors” (Zenith Epigenetics Ltd., priority 2012, dated 2017).
Counter-ions that a name gives are not always drawn.

Key:
[1] = biological target: T1, Brd4 bromodomain 1 (Homo sapiens, UniProt O60885); assay: Inhibition of tetra-acetylated histone H4 binding to BET bromodomains (TR-FRET); set-up: key: Active: Compounds with an IC50 value less than 30 μM were deemed to be active.; Not Active: Compounds with an IC50 value less than 30 μM were deemed to be active; conditions: first bromodomain of Brd4, tetra-acetylated histone H4 peptide
T1 construct: made in house; host or cells: E. coli BL21(DE3)
Protocol: Proteins were cloned and overexpressed with a N-terminal 6×His tag, then purified by nickel affinity followed by size exclusion chromatography. Briefly, E. coli BL21(DE3) cells were transformed with a recombinant expression vector encoding N-terminally Nickel affinity tagged bromodomains from Brd2, Brd3, Brd4. Cell cultures were incubated at 37° C. with shaking to the appropriate density and induced overnight with IPTG. The supernatant of lysed cells was loaded onto Ni-IDA column for purification. Eluted protein was pooled, concentrated and further purified by size exclusion chromatography. Fractions representing monomeric protein were pooled, concentrated, aliquoted, and frozen at −80° C. for use in subsequent experiments.
Binding of tetra-acetylated histone H4 and BET bromodomains was confirmed by a Time Resolved Fluorescence Resonance Energy Transfer (TR-FRET) method. N-terminally His-tagged bromodomains (200 nM) and biotinylated tetra-acetylated histone H4 peptide (25-50 nM, Millipore) were incubated in the presence of Europium Cryptate-labeled streptavidin (Cisbio Cat. #610SAKLB) and XL665-labeled monoclonal anti-His antibody (Cisbio Cat. #61HISXLB) in a white 96 well microtiter plate (Greiner). For inhibition assays, serially diluted test compound was added to these reactions in a 0.2% final concentration of DMSO. Final buffer concentrations were 30 mM HEPES pH 7.4, 30 mM NaCl, 0.3 mM CHAPS, 20 mM phosphate pH 7.0, 320 mM KF, 0.08% BSA). After 2 hours incubation at room temperature, the fluorescence by FRET was measured at 665 and 620 nm by a SynergyH4 plate reader (Biotek). Illustrative results with the first bromodomain of Brd4 are shown below (Table 1). The binding inhibitory activity was shown by a decrease in 665 nm fluorescence relative to 620 nm. IC50 values were determined from a dose response curve.

[2] = test system: hIL-6 mRNA; assay: Inhibition of hIL-6 mRNA transcription in LPS-stimulated U937 macrophages; assay type: cell-based, human; set-up: key: Active: Compounds with an IC50 value less than 30 μM are deemed to be active; conditions: U937 differentiated into macrophages, 1 h pretreatment, lipopolysaccharide 3 h
Protocol: In this example, hIL-6 mRNA in tissue culture cells was quantitated to measure the transcriptional inhibition of hIL-6 when treated with a compound of the present disclosure.
A human leukemic monocyte lymphoma cell line (U937) was plated (3.2×10^4 cells per well) in a 96-well plate in 100 μL RPMI-1640 containing 10% FBS and penicillin/streptomycin, and differentiated into macrophages for 3 days in 60 ng/mL PMA ([…]) at 37° C. in 5% CO2 prior to the addition of the compound of interest. The cells were pretreated for 1 h with the test compound prior to stimulation with […] lipopolysaccharide from Escherichia coli. The cells were incubated at 37° C. for 3 h before the cells were harvested. At time of harvest, the spent media was removed from the cells and the cells were rinsed in 200 μL PBS. Cell lysis solution (70 μL) was added the cells in each well and incubated for 5-10 min at room temperature, to allow for complete cell lysis and detachment. mRNA was then prepared using the “mRNA Catcher PLUS plate” (Invitrogen), according to the protocol supplied. After the last wash, as much wash buffer as possible was aspirated without allowing the wells to dry. Elution buffer (E3, 70 μL) was then added to each well. mRNA was then eluted by incubating the mRNA Catcher PLUS plate with Elution Buffer for 5 min at 68° C. and then immediately placing the plate on ice.
The eluted mRNA isolated was then used in a one-step quantitative real-time PCR reaction, using components of the Ultra Sense Kit together with Applied Biosystems primer-probe mixes. Real-time PCR data was analyzed, normalizing the Ct values for hIL-6 to an internal control, prior to determining the fold induction of each unknown sample, relative to the control.

[3] = test system: Human AML MV-4-11 cells; assay: Inhibition of cell proliferation in cancer cell lines (CellTiter Aqueous One); assay type: cell-based; set-up: key: Active: Compounds with an IC50 value less than 30 μM were deemed to be active.; Not Active: Compounds with an IC50 value less than 30 μM were deemed to be active; conditions: 72 hours
Protocol: MV4-11 cells: 96-well plates were seeded with 5×10^4 cells per well of exponentially growing human AML MV-4-11 (CRL-9591) cells and immediately treated with two-fold dilutions of test compounds, ranging from 30 μM to 0.2 μM. Triplicate wells were used for each concentration, as well as a media only and three DMSO control wells. The cells and compounds were incubated at 37° C., 5% CO2 for 72 hours before adding 20 μL of the CellTiter Aqueous One Solution (Promega) to each well and incubating at 37° C., 5% CO2 for an additional 3-4 hours. The absorbance was taken at 490 nm in a spectrophotometer and the percentage of proliferation relative to DMSO-treated cells was calculated after correction from the blank well. IC50 were calculated using the GraphPad Prism software.

[4] = test system: c-myc; assay: Inhibition of c-myc expression in cancer cell lines (mRNA, real-time PCR); assay type: cell-based; set-up: key: Active: Compounds with an IC50 value less than 30 μM were deemed to be active; conditions: Human AML MV4-11 cells, 3 hours
Protocol: MV4-11 cells (2.5×10^4 cells) were plated in 96 well U-bottom plates with test compound or DMSO (0.1%), and incubated for 3 hours at 37° C. Cells were then harvested by centrifugation, lysed, and mRNA was isolated using the mRNA catcher plus kit (Invitrogen). Reverse transcription of the mRNA and duplex amplification of the c-myc and cyclophilin cDNAs was performed using the RNA Ultrasense kit (Invitrogen) and a ViiA7 real-time PCR machine (Applied Biosystems). IC50 values were determined from a dose response curve.

FRET activity (IC50 < 30 μM) [1]	IL-6 activity (IC50 < 30 μM) [2]	cell proliferation activity (IC50 < 30 μM) [3]	c-myc activity (IC50 < 30 μM) [4]	melting point	SMILES
Not Active	Not Active				CN1CC[C@H](Oc2cc(F)cc3nc(-c4cccc(-c5ccc(S(C)(=O)=O)cc5)n4)[nH]c(=O)c23)C1 [Example 7, (S)-7-Fluoro-5-((1-methylpyrrolidin-3-yl)oxy)-2-(6-(4-(methylsulfonyl)phenyl)pyridin-2-yl)quinazolin-4(3H)-one]
Not Active	Not Active	Not Active	Not Active		COc1cc(OC)c2c(=O)[nH]c(-c3ccc(OCCO)c(-c4cccc(S(C)(=O)=O)c4)n3)nc2c1 [Example 36, 2-(5-(2-Hydroxyethoxy)-6-(3-(methylsulfonyl)phenyl)pyridin-2-yl)-5,7-dimethoxyquinazolin-4(3H)-one methanesulfonate]
Not Active	Not Active				COc1cc(OC)c2c(=O)[nH]c(-c3cccc(-c4ccc(S(C)(=O)=O)cc4)n3)cc2c1 [Example 9, 6,8-Dimethoxy-3-(6-(4-(methylsulfonyl)phenyl)pyridin-2-yl)isoquinolin-1(2H)-one]
Not Active	Active				COc1cc(OC)c2c(=O)[nH]c(-c3cccc(-c4ccc([S+](C)[O-])cc4)n3)cc2c1 (centres unmarked) [Example 10, 6,8-dimethoxy-3-(6-(4-(methylsulfinyl)phenyl)pyridin-2-yl)isoquinolin-1(2H)-one]
Not Active	Active	Active	Not Active		COc1cc(OC)c2c(=O)[nH]c(-c3cccc(-c4ccc(C(=O)N(C)C)cc4)n3)cc2c1 [Example 8, 4-(6-(6,8-Dimethoxy-1-oxo-1,2-dihydroisoquinolin-3-yl)pyridin-2-yl)-N,N-dimethylbenzamide]
				218 to 220 °C	COc1cc(OC)c2c(=O)[nH]c(-c3ccc(OCCO)c(-c4cccc(S(C)(=O)=O)c4)n3)nc2c1 (as salt: methanesulfonate) [Example 36, 2-(5-(2-Hydroxyethoxy)-6-(3-(methylsulfonyl)phenyl)pyridin-2-yl)-5,7-dimethoxyquinazolin-4(3H)-one methanesulfonate]

Second part, the compound before the results:

SMILES	FRET activity (IC50 < 30 μM) [1]	IL-6 activity (IC50 < 30 μM) [2]	cell proliferation activity (IC50 < 30 μM) [3]	c-myc activity (IC50 < 30 μM) [4]	melting point
COc1cc(OC)c2c(=O)[nH]c(-c3ccc(OCCO)c(-c4ccc(C(C)=O)cc4)n3)nc2c1 [Example 28, 2-(6-(4-Acetylphenyl)-5-(2-hydroxyethoxy)pyridin-2-yl)-5,7-dimethoxyquinazolin-4(3H)-one]	Active	Active			
COc1cc(OC)c2c(=O)[nH]c(-c3ccc(OC4CN(C)C4)c(-c4ccc([S+](C)[O-])cc4)c3)nc2c1 (centres unmarked) [Example 13, 5,7-Dimethoxy-2-(6-(1-methylazetidin-3-yloxy)-4′-(methylsulfinyl)biphenyl-3-yl)quinazolin-4(3H)-one]	Active	Active	Active	Active	
COc1cc(OC)c2c(=O)[nH]c(-c3ccc(OCCO)c(-c4ccc([S+](C)[O-])cc4)c3)nc2c1 (centres unmarked) [Example 16, 2-(6-(2-Hydroxyethoxy)-4′-(methylsulfinyl)biphenyl-3-yl)-5,7-dimethoxyquinazolin-4(3H)-one]	Active	Active	Not Active	Not Active	
COc1cc(OC)c2c(=O)[nH]c(-c3ccc(OCCN(C)C)c(-c4ccc([S+](C)[O-])cc4)c3)nc2c1 (centres unmarked) [Example 11, 2-(6-(2-(Dimethylamino)ethoxy)-4′-(methylsulfinyl)biphenyl-3-yl)-5,7-dimethoxyquinazolin-4(3H)-one]	Active	Active	Active	Active	
CC(C)NCCOc1ccc(-c2nc3ccccc3c(=O)[nH]2)nc1-c1ccc([S+](C)[O-])cc1 (centres unmarked) [Example 65, 2-(5-(2-(Isopropylamino)ethoxy)-6-(4-(methylsulfinyl)phenyl)pyridin-2-yl)quinazolin-4(3H)-one]	Active	Active			
COc1cc(F)cc2nc(-c3ccc(OC4CNC4)c(-c4ccc([S+](C)[O-])cc4)c3)[nH]c(=O)c12 (centres unmarked) [Example 14, 2-(6-(Azetidin-3-yloxy)-4′-(methylsulfinyl)-[1,1′-biphenyl]-3-yl)-7-fluoro-5-methoxyquinazolin-4(3H)-one]	Active	Not Active	Not Active	Not Active	
CCS(=O)(=O)c1ccc(-c2nc(-c3nc4cc(OC)cc(OC)c4c(=O)[nH]3)ccc2OCCN2CCOCC2)cc1 (as salt: hydrochloride) [Example 43, 2-(6-(4-(Ethylsulfonyl)phenyl)-5-(2-morpholinoethoxy)pyridin-2-yl)-5,7-dimethoxyquinazolin-4(3H)-one]					245 °C (dec.)
COc1cc(OC)c2c(=O)[nH]c(-c3ccc(OC4CNC4)c(-c4ccc([S+](C)[O-])cc4)c3)nc2c1 (centres unmarked) [Example 12, 2-(6-(Azetidin-3-yloxy)-4′-(methylsulfinyl)biphenyl-3-yl)-5,7-dimethoxyquinazolin-4(3H)-one]		Not Active	Not Active	Not Active	
CCS(=O)(=O)c1ccc(-c2nc(-c3nc4cc(OC)cc(OC)c4c(=O)[nH]3)ccc2OCCN2CCCC2)cc1 (as salt: hydrochloride) [Example 42, 2-(6-(4-(Ethylsulfonyl)phenyl)-5-(2-(pyrrolidin-1-yl)ethoxy)pyridin-2-yl)-5,7-dimethoxyquinazolin-4(3H)-one]					235 to 236 °C
COc1ccc2c(=O)[nH]c(-c3ccc(OCCNC(C)C)c(-c4ccc([S+](C)[O-])cc4)n3)nc2c1 (centres unmarked) [Example 66, 2-(5-(2-(Isopropylamino)ethoxy)-6-(4-(methylsulfinyl)phenyl)pyridin-2-yl)-7-methoxyquinazolin-4(3H)-one]	Active				
